Values after ≈ are worked out from the molar mass of the structure shown.
What was measured:
[1] = test system: ATCC 49775 reference strain; assay: Microdilution time-kill assay; format: cell-based, Staphylococcus; conditions: for growth (optical density) compared to growth control: over a 48 hour period
Protocol: Following assessment of MIC and MBC results, two compounds were chosen for analysis using microdilution time-kill assays, LP 1369 and LP 6315 and these were compared to ampicillin. Time-kill assays were performed according to the M26-A guidelines of the CLSI, with modifications. The test compounds and ampicillin were serial diluted in CAMHB across the rows of a 96 well plate and a bacterial suspension was prepared and added in the same manner as the MIC testing. […] The time points assessed were 0, 1, 2, 4, 8, 12, 24 and 48 hours after the addition of the bacterial suspension to the wells. Each test compound was tested in triplicate while ampicillin was tested in duplicate and this test was independently repeated. The bacterial strains used for the microdilution assays were chosen based on bactericidal activity evident during MBC testing. One strain from each of the categories of Staphylococcus in the isolate collection (methicillin-sensitive, methicillin resistant and coagulase negative) were selected as well as the ATCC reference strain for comparison. These strains were strains MSS 1, MSS 11, MRSA 9 and the ATCC 49775 reference strain.

[2] = test system: Staphylococcus isolates (methicillin-sensitive and methicillin-resistant); assay: Minimum bactericidal concentration determination (Example 1); format: cell-based; conditions: for bactericidal activity (MBC testing): methicillin-sensitive and methicillin-resistant strains
Protocol: Following determination of the MIC using the 96 well MIC plate, a variation of the drop plate method was used to determine minimum bactericidal concentration (MBC) for each of the test compounds. These were analysed using samples taken from the MIC plate following incubation. For each compound, a 10 μL drop of each concentration equal to or higher than the MIC was pipetted onto Sheep Blood Agar in a clockwise manner (FIG. 3). Each concentration was pipetted in duplicate with duplicates being pipetted on an inner ring of drops. The plates were incubated at 37° C. overnight and assessed the following day for growth. The MBC was defined as the concentration at which 99.9% of colonies were eradicated, which was visually assessed by a lack of growth on the agar where the drop was placed. […] The MBC values for 50% and 90% of the isolates (MBC50 and MBC90) were calculated and assessed along with the MBC range in order to select compounds for further study.

[3] = test system: ATCC 49775 reference strain; assay: Macrodilution time-kill assay; format: cell-based, Staphylococcus; conditions: 24 hours
Protocol: (§1) Due to the detection limit of the OD measurements, the time-kill assays were also performed in macrodilution. In 15 mL tubes, 9 mL volumes of the test compounds in CAMHB were prepared at one, four and eight times the MIC concentration and 9 mL volumes of ampicillin were prepared in CAMHB at one and four times the MIC. 1 mL of a 4 to 5×10^6 bacterial suspension (as prepared for MIC testing) was added to each of the tubes as well as a growth control tube containing only 9 mL of CAMHB. These tubes were incubated at 37° C. in an orbital shaker rotating at 100 rpm for 24 hours. At 0, 1, 4, 8, 12 and 24 hours after addition of the bacteria, 100 μL samples were removed from each tube and serial diluted in 9.1 g/L saline solution. The dilutions were then plated in duplicate onto plate count agar and incubated for 24 hours at 37° C. After incubation, viable counts were obtained from the number of colonies visible on the agar and these were used to calculate the number of CFU/mL at each time point. For the macrodilution time-kill analysis, only the ATCC 49775 reference strain and MRSA 9 were assessed in order to further investigate the antibacterial activity against methicillin-resistant strains. These macrodilution time-kill assays were independently repeated and bactericidal activity was defined as a ≥3 log decrease in the number of CFU/mL.

[4] = test system: MRSA 9; assay: Macrodilution time-kill assay; format: cell-based, Staphylococcus aureus; conditions: 24 hours
Protocol: as §1

[5] = test system: bovine mastitis isolates; assay: Minimum inhibitory concentration assay (Example 3); format: cell-based; conditions: for MIC90: 51 Australian bovine mastitis isolates
Source text: Fifty-one dairy bovine mastitis isolates, encompassing a variety of bacterial species, were isolated from milk samples collected from dairy farms in rural South Australia by the University of Adelaide Ambulatory Clinic. Cellular morphology observed from Gram stains and catalase testing was used to differentiate Staphylococcus, Streptococcus and Corynebacterium species from Gram-negative species. Further biochemical testing including coagulase, Lancefield grouping, esculin hydrolysis and CAMP tests were used to identify the isolates to species level. Where biochemical test results were not definitive in identifying species, amplification and sequencing of the 16S ribosomal RNA gene was used to confirm the identity of the isolates.
Minimum inhibitory concentration tests were performed in the manner outlined by the CLSI (CLSI 2012). Test compounds were dispensed into a 96-well microtitre tray containing 90 μl of CAMHB in 90 μl volumes and serial diluted to obtain a concentration gradient ranging from 128 μg/ml to 0.25 μg/ml (see FIG. 24). For Streptococcus species, CAMHB was replaced with a CAMHB supplement with 4% lysed-sheep blood (4% LSB:CAMHB). 4% LSB:CAMHB was prepared by mixing 5 ml sheep blood to 5 ml milliQ water, and repeated freezing at −20° C. and thawing, followed by centrifuged for 20 min at 7000 rpm. 7 ml of the supernatant was removed and added to 93 mL of CAMB.
Bacterial suspensions were prepared by emulsifying fresh colonies obtained from an overnight culture on Sheep Blood Agar (SBA) in 4 mls of 9.1 g/l physiological saline to an optical density read at 600 nm (OD600nm) between 1.00 and 1.20. Standardised bacterial suspensions were diluted 1:10 in physiological saline and dispensed into all wells, excluding the negative control wells, in 10 μL volumes giving a final concentration of between 4×10^5 and 5×10^5 CFU/mL in each well. 96-well microtitre trays were incubated for 24 hours at 37° C. in 5% CO2 and then assessed both visually and using OD readings from a microplate reader at a wavelength of 600 nm. These tests were performed in duplicate and repeated if discrepancies in MIC values were observed between replicates.
The minimum inhibitory concentration (MIC) was determined to be the lowest concentration of antibiotic that prevented growth of bacteria both visually and using OD readings. MIC values were collated and used to determine the lowest concentration of each compound effective against 50% and 90% of isolates, known as the MIC50 and MIC90 respectively. These values as well as the range of MIC values were then used for direct comparisons between test compounds and for general comparisons with ampicillin.

Row | SMILES | growth at the MIC ([1]; at the MIC, 48 hours) | growth (optical density) compared to growth control [1] | strains against which bactericidal activity was exhibited more consistently [2] | MBC50 (rank among test compounds) ([2]; methicillin-resistant isolates) | bactericidal activity (MBC testing) [2] | bactericidal or bacteriostatic (>=3 log decrease in CFU/mL = bactericidal) ([3]; LP 6315: most concentrations) | bactericidal or bacteriostatic (>=3 log decrease in CFU/mL = bactericidal) ([4]; LP 6315: most concentrations) | decrease in colonies ([4]; four times the MIC) | MIC values (in words) [5] | antibacterial activity against the bovine mastitis isolates [5] | MIC90 [5] | MBC50 (rank among test compounds) ([2]; methicillin-sensitive isolates) | decrease in the number of viable bacteria ([3]; all concentrations tested) | decrease in the number of viable bacteria ([4]; all concentrations tested)
1 | CO[C@@H]1[C@@H](OC)[C@H](C)[C@@](O)(CC(=O)O)O[C@H]1[C@H](C)[C@H]1O[C@@]2(CC[C@@](C)([C@H]3CC[C@@](C)([C@@H]4O[C@@H]([C@H]5O[C@](C)(O)[C@H](C)C[C@@H]5C)C[C@@H]4O[C@@H]4C[C@H](OC)[C@@H](OC)[C@H](C)O4)O3)O2)C[C@H](O)[C@H]1C.N [LP 6315, Maduramicin] | Some growth was observed after 48 hours | prevented the growth | methicillin-sensitive strains | lowest MBC50 values | some bactericidal activity in lower concentrations | bacteriostatic | bacteriostatic | > 3 log10 | low MIC values | observed | 4 µg/mL |  |  | 
2 | CC[C@@H](C(=O)[C@@H](C)[C@@H](O)[C@H](C)CCc1ccc(C)c(O)c1C(=O)O)[C@H]1O[C@](CC)([C@H]2CC[C@](O)(CC)[C@H](C)O2)C[C@@H]1C [LP 1369, Lasalocid] |  | prevented the growth | methicillin-sensitive strains |  | some bactericidal activity in lower concentrations |  |  |  | low MIC values | observed | 4 µg/mL (≈ 6.77 µM) | lowest MBC50 values | < 3 log10 | < 3 log10

From US11491105B2, “Methods of treating microbial infections, including mastitis” (priority 2013, dated 2022)
